Laboratory results published in patent publication US20130196050A1, “SALTY TASTE ENHANCER” (AJINOMOTO CO., INC., priority 2010, published 2013).

Biological target: T1, Human ENaC δ, β and γ subunit (Homo sapiens, UniProt P51168+P51170+P51172)
T1 construct: expressed in transfected cells; host or cells: Xenopus laevis (African clawed frog) oocytes injected with cRNA
T1 sequence (P51172 1-638 isoform P51172-1): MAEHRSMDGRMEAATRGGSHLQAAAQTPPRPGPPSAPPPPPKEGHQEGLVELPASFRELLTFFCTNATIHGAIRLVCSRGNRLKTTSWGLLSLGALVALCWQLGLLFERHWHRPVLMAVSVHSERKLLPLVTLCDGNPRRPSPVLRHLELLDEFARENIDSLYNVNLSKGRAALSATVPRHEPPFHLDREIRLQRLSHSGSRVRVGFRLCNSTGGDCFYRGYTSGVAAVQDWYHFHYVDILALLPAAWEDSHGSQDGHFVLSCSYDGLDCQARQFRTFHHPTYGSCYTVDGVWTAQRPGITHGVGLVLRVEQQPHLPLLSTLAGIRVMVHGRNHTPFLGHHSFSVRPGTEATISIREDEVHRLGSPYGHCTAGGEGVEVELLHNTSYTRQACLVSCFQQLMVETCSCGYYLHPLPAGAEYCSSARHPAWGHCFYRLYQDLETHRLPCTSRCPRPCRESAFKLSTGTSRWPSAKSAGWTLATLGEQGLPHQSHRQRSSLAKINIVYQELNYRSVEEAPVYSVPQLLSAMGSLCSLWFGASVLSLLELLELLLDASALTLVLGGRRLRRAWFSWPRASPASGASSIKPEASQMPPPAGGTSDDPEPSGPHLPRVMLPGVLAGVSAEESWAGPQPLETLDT
T1 sequence (P51168 1-640): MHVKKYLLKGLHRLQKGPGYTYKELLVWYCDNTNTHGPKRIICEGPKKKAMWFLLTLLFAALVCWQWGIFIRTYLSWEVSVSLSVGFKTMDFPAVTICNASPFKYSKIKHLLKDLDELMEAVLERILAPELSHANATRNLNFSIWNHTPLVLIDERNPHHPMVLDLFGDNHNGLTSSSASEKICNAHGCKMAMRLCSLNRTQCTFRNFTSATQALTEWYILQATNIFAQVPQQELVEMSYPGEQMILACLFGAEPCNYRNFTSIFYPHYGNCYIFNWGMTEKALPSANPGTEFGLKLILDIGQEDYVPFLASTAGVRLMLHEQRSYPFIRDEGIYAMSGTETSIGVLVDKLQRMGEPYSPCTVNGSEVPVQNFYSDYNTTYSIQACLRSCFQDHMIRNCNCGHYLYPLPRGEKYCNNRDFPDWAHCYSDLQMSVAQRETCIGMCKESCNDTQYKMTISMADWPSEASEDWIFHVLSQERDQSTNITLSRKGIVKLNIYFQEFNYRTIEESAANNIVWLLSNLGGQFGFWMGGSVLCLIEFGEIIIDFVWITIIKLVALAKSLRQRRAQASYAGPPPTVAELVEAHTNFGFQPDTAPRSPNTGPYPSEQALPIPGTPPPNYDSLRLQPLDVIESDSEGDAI
T1 sequence (P51170 1-649): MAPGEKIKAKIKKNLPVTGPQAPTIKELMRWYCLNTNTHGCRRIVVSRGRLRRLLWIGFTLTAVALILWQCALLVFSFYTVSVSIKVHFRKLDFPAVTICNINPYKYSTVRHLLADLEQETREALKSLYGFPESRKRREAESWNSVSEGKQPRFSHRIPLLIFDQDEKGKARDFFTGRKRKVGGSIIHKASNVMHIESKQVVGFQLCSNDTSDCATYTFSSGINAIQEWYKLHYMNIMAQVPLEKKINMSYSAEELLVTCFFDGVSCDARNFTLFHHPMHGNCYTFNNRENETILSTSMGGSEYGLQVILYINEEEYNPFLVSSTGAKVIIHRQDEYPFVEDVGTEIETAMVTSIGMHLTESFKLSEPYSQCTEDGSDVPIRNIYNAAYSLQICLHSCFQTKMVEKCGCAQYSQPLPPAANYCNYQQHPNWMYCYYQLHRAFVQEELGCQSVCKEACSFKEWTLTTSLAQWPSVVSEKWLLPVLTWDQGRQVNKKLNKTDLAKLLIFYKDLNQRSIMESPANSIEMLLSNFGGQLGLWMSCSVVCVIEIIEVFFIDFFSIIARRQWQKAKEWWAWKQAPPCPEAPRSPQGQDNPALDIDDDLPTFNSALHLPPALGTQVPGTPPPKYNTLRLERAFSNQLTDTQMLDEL
Test: Measurement of ENaC activation potency (two electrode voltage clamp current in ENaC-expressing oocyte)
Type: cell-based
In short: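 Xenopus oocytes were injected with human ENaC δ, β and γ cRNA, cultured 16–72 h, and voltage-clamped by two-electrode clamp at −30 mV below resting potential in ND96 (pH 7.6) perfusion. Compounds (0.1 nM–300 μM) were added in rising concentrations at 3-min intervals. MED was the first concentration raising current by ≥10% over pre-addition current.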

concentration from which the ENaC activation current starts to increase (FIG. 3): 0.00001 g/dL
concentration at which the ENaC activation current reaches the maximum current value (FIG. 3, almost constant up to 0.0080 g/dl): 0.0020 g/dL
MED value (minimum effective dose) (lowest concentration increasing the current value by not less than 10% vs before addition): 0.1 to 0.3 µM
Structure (SMILES): O=C(NCCc1c[nH]c2ccc(O)cc12)c1c(O)cccc1O [Example 35, 2,6-dihydroxy-N-(2-(5-hydroxy-1H-indol-3-yl)ethyl)benzamide]
